Experimental data taken from PMC3914206.

How the values were obtained:
panel of 442 kinases [1] = molecular target: T1, panel of 442 kinases (Homo sapiens, UniProt Q92630); format: binding; conditions: Compound Concentration 10 µM
T1 construct: purchased KINOMEscan
T1 sequence (Q92630 1-601): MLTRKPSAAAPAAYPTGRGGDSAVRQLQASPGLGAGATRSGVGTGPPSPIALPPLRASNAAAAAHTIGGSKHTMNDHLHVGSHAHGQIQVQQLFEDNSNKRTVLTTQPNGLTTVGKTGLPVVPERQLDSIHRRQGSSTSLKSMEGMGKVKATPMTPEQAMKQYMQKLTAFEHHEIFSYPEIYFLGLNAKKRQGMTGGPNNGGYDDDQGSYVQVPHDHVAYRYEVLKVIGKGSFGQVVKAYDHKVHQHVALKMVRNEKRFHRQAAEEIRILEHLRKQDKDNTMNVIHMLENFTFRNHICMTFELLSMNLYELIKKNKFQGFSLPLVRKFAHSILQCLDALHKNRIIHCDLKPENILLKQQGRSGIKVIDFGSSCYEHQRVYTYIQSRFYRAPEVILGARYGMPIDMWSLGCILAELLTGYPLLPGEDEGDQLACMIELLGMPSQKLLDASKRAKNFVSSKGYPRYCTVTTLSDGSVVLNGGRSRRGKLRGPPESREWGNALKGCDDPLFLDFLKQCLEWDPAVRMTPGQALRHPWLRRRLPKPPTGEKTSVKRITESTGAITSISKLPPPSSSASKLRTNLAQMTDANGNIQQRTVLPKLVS
Description: (§1) We assessed the selectivity of members of this scaffold using the KINOMEscan methodology across a near comprehensive panel of 442 kinases [[18,27]].

panel of 442 kinases [2] = molecular target: T2, panel of 442 kinases (Homo sapiens, UniProt Q9UPZ9); format: binding; conditions: Compound Concentration 10 µM
T2 construct: purchased KINOMEscan
T2 sequence (Q9UPZ9 1-632): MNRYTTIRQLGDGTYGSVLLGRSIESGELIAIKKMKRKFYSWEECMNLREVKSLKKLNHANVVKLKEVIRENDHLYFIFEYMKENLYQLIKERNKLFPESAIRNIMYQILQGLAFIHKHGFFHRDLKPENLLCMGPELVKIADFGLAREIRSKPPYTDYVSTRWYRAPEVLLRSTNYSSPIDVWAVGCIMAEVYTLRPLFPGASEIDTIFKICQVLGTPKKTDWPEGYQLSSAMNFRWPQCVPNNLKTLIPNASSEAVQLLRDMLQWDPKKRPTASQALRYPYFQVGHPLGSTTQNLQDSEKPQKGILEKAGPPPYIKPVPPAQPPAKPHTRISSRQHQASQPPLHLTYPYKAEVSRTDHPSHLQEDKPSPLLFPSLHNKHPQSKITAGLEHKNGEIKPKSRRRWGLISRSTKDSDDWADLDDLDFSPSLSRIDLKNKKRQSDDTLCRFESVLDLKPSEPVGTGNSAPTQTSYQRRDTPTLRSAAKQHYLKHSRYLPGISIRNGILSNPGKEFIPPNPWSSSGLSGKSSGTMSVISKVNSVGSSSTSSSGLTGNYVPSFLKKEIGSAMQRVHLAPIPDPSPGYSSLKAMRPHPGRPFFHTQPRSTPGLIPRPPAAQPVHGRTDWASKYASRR
Description: as §1

COc1cc(C(=O)N2CCC(N3CCN(C)CC3)CC2)ccc1Nc1ncc2c(n1)N(C)c1ccccc1C(=O)N2C [15 (LRRK2-IN-1)]
KINOMEscan: DYRK2 (panel of 442 kinases [1]): 76
KINOMEscan: ICK (panel of 442 kinases [2]): 90

COc1cc(C(=O)N2CCC(N3CCN(C)CC3)CC2)ccc1Nc1ncc2c(n1)N1CCc3cccc(c31)C(=O)N2C [Compound 24]
KINOMEscan: DYRK2 (panel of 442 kinases [1]): 82

COc1cc(C(=O)N2CCC(N3CCN(C)CC3)CC2)ccc1Nc1ncc2c(n1)N(C1CCCC1)c1ccccc1C(=O)N2C [Compound 25, 11-cyclopentyl-2-((2-methoxy-4-(4-(4-methylpiperazin-1-yl)piperidine-1-carbonyl)phenyl)amino)-5-methyl-5H-benzo[e]pyrimido[5,4-b][1,4]diazepin-6(11H)-one]
KINOMEscan: DYRK2 (panel of 442 kinases [1]): 100
KINOMEscan: ICK (panel of 442 kinases [2]): 100

CCOc1cc(C(=O)N2CCC(N3CCN(C)CC3)CC2)ccc1Nc1ncc2c(n1)N(C1CCCC1)c1ccccc1C(=O)N2C [Compound 26]
KINOMEscan: DYRK2 (panel of 442 kinases [1]): 100
KINOMEscan: ICK (panel of 442 kinases [2]): 100
